In one test the target is FAAH (Mus musculus (Mouse), UniProt O08914). As to the kind of experiment: In vitro competitive activity-based protein profiling, FAAH (mouse). Format: biochemical. To be noted: for inhibition at 1 µM: read-out: FAAH % inh. 1 μM (mouse). The method, then: (§1) In Vitro Competitive Activity-Based Protein Profiling.
(§2) Proteomes (mouse brain membrane fraction or cell lysates for mouse assays; human prefrontal cortex or cell membrane fractions for human assays) (50 μL, 1.0 mg/mL total protein concentration) were preincubated with varying concentrations of inhibitors at 37° C. After 30 min, FP—Rh or HT-01 (1.0 μL, 50 μM in DMSO) was added and the mixture was incubated for another 30 min at 37° C. Reactions were quenched with SDS loading buffer (15 μL-4×) and run on SDS-PAGE. Following gel imaging, serine hydrolase activity was determined by measuring fluorescent intensity of gel bands corresponding to MAGL and FAAH using ImageJ 1.43u software.

The next test has as its target MAGL (Mus musculus (Mouse), UniProt O35678). As to the kind of experiment: In vitro competitive activity-based protein profiling, MAGL (mouse). In kind it is biochemical. Conditions: for inhibition at 1 µM: read-out: MAGL % inh. 1 μM (mouse). The method, then: as §1, §2

Each structure is given as a SMILES string. pIC50: −log10 of the molar value.

FAAH, sequence (O08914 whole entry): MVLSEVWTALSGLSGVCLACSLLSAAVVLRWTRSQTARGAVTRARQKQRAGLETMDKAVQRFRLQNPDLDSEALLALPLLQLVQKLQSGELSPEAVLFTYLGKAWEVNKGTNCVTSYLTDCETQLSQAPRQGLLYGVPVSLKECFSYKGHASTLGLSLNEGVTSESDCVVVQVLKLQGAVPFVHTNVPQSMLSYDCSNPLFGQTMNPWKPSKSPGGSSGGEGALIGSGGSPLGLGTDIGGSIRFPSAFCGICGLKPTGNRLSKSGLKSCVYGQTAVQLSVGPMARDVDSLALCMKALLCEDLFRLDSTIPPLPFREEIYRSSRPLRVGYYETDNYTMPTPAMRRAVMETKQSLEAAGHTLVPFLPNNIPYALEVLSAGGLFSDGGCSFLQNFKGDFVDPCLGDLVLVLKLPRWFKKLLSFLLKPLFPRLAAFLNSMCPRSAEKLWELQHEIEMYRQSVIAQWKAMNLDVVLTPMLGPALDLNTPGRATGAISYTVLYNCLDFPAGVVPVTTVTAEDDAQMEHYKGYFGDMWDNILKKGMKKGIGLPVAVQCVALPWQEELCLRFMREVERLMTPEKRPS
MAGL, sequence (O35678 whole entry): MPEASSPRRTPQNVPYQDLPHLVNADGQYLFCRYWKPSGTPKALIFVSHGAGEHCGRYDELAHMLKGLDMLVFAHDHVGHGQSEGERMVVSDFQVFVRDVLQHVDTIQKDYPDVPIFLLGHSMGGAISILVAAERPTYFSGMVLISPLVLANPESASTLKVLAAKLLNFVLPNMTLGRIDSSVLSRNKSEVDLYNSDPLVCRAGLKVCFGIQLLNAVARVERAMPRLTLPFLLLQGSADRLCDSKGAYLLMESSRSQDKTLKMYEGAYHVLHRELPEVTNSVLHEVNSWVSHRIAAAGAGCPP

For the compound `CC(=O)N(C)c1cnn(C(=O)N2CCC3(CCN(Cc4cc(Cl)ccc4Cl)C3)C2)c1` (racemic) [Example 175, N-(1-(7-(2,5-dichlorobenzyl)-2,7-diazaspiro[4.4]nonane-2-carbonyl)-1H-pyrazol-4-yl)-N-methylacetamide], at FAAH, the negative logarithm of the IC50 (pIC50) is at least 7.00 and the inhibition at 1 µM was at least 75%. For the same compound, at MAGL, the negative-log IC50 (pIC50) was 6.00 to 7.00 and the inhibition at 1 µM is at least 75%.
For the compound `CC(=O)N(C)c1cnn(C(=O)N2CCC3(CCN(Cc4cccc(C(F)(F)F)c4)C3)C2)c1` (single isomer, unassigned) [Example 65, N-methyl-N-(1-(7-(3-(trifluoromethyl)benzyl)-2,7-diazaspiro[4.4]nonane-2-carbonyl)-1H-pyrazol-4-yl)acetamide], at FAAH, the pIC50 was at least 7.00 and the inhibition at 1 µM is at least 75%. Also, on MAGL, the negative logarithm of the IC50 (pIC50) is 6.00 to 7.00 and the inhibition at 1 µM was at least 75%.
As for `CC(=O)N(C)c1cnn(C(=O)N2CCC3(CCN(Cc4cccc(C(F)(F)F)c4)C3)C2)c1` (single isomer, unassigned) [Example 66, N-methyl-N-(1-(7-(3-(trifluoromethyl)benzyl)-2,7-diazaspiro[4.4]nonane-2-carbonyl)-1H-pyrazol-4-yl)acetamide], the negative logarithm of the IC50 (pIC50) on FAAH is at least 7.00; on MAGL, 6.00 to 7.00.
`CC(=O)N(C)c1cnn(C(=O)N2CCC3(CCN(Cc4cc(Cl)ccc4Cl)C3)C2)c1` (single isomer, unassigned) [Example 176, N-(1-(7-(2,5-dichlorobenzyl)-2,7-diazaspiro[4.4]nonane-2-carbonyl)-1H-pyrazol-4-yl)-N-methylacetamide]: on FAAH, the pIC50 was at least 7.00 and the inhibition at 1 µM is at least 75%. Besides, on MAGL, the pIC50 is at least 7.00 and the inhibition at 1 µM is at least 75%.
Turning to `CC(=O)N(C)c1cnn(C(=O)N2CCC3(CCN(Cc4cc(Cl)ccc4Cl)C3)C2)c1` (single isomer, unassigned) [Example 177, N-(1-(7-(2,5-dichlorobenzyl)-2,7-diazaspiro[4.4]nonane-2-carbonyl)-1H-pyrazol-4-yl)-N-methylacetamide], the pIC50 on FAAH and at MAGL was at least 7.00 throughout.
For `CC(=O)N(C)c1cnn(C(=O)N2CCC3(CCN(Cc4ccc(Cl)c(Cl)c4)C3)C2)c1` (stereo not drawn) [Example 1, N-(1-(7-(3,4-dichlorobenzyl)-2,7-diazaspiro[4.4]nonane-2-carbonyl)-1H-pyrazol-4-yl)-N-methylacetamide], the negative logarithm of the IC50 (pIC50) on FAAH is at least 7.00; at MAGL it was 6.00 to 7.00. The inhibition at 1 µM at FAAH and on MAGL was at least 75% each time.
On to `CC(=O)N(C)c1cnn(C(=O)N2CCC3(CCN(Cc4ccc(C(F)(F)F)cc4)C3)C2)c1` (stereo not drawn) [Example 2, N-methyl-N-(1-(7-(4-(trifluoromethyl)benzyl)-2,7-diazaspiro[4.4]nonane-2-carbonyl)-1H-pyrazol-4-yl)acetamide], for which, on FAAH, the negative logarithm of the IC50 (pIC50) is 6.00 to 7.00 and the inhibition at 1 µM is at least 75%. At MAGL, the negative-log IC50 (pIC50) was 6.00 to 7.00 and the inhibition at 1 µM was at least 75%.
For `CC(=O)N(C)c1cnn(C(=O)N2CCC3(CCN(Cc4ccc(N5CCOCC5)cc4Cl)C3)C2)c1` (stereo not drawn) [Example 4, N-(1-(7-(2-chloro-4-morpholinobenzyl)-2,7-diazaspiro[4.4]nonane-2-carbonyl)-1H-pyrazol-4-yl)-N-methylacetamide], the pIC50 was at least 7.00 at FAAH and 6.00 to 7.00 on MAGL. The inhibition at 1 µM at FAAH and at MAGL was at least 75% each time.
As to `CS(=O)(=O)Nc1cnn(C(=O)N2CC3CN(Cc4ccccc4Cl)CC3C2)c1` (stereo not drawn) [Example 6, N-(1-(5-(2-chlorobenzyl)octahydropyrrolo[3,4-c]pyrrole-2-carbonyl)-1H-pyrazol-4-yl)methanesulfonamide], at FAAH, the pIC50 is 6.00 to 7.00 and the inhibition at 1 µM is at least 75%. Moreover, on MAGL, the negative-log IC50 (pIC50) was 5.00 to 6.00 and the inhibition at 1 µM lay within 0 to 25%.
Take `CS(=O)(=O)Nc1cnn(C(=O)N2CC3CN(Cc4cccc(Cl)c4)CC3C2)c1` (stereo not drawn) [Example 7, N-(1-(5-(3-chlorobenzyl)octahydropyrrolo[3,4-c]pyrrole-2-carbonyl)-1H-pyrazol-4-yl)methanesulfonamide]: at FAAH, the pIC50 is 6.00 to 7.00 and the inhibition at 1 µM is at least 75%. For the same compound, on MAGL, the pIC50 is 5.00 to 6.00 and the inhibition at 1 µM is 0 to 25%.
The corresponding values for `CS(=O)(=O)Nc1cnn(C(=O)N2CC3CN(Cc4ccc(Cl)cc4)CC3C2)c1` (stereo not drawn) [Example 8, N-(1-(5-(4-chlorobenzyl)octahydropyrrolo[3,4-c]pyrrole-2-carbonyl)-1H-pyrazol-4-yl)methanesulfonamide] are 6.00 to 7.00, at least 75%, 5.00 to 6.00 and 0 to 25%.
`CC(=O)N(C)c1cnn(C(=O)N2CC3CN(Cc4cccc(Cl)c4)CC3C2)c1` (stereo not drawn) [Example 10, N-(1-(5-(3-chlorobenzyl)octahydropyrrolo[3,4-c]pyrrole-2-carbonyl)-1H-pyrazol-4-yl)-N-methylacetamide]: the pIC50 on FAAH and on MAGL was 6.00 to 7.00 in each case. Besides, the inhibition at 1 µM at FAAH and at MAGL was at least 75% each time.
As to `CC(=O)N(C)c1cnn(C(=O)N2CC3CN(Cc4ccc(Cl)c(Cl)c4)CC3C2)c1` (stereo not drawn) [Example 12, N-(1-(5-(3,4-dichlorobenzyl)octahydropyrrolo[3,4-c]pyrrole-2-carbonyl)-1H-pyrazol-4-yl)-N-methylacetamide], the results for the negative-log IC50 (pIC50) on FAAH and on MAGL were at least 7.00 and 6.00 to 7.00, respectively. In addition, the inhibition at 1 µM at FAAH and on MAGL was at least 75% in each case.
With `CC(=O)N(C)c1cnn(C(=O)N2CC3CN(Cc4ccc(N5CCCC5)cc4)CC3C2)c1` (stereo not drawn) [Example 13, N-methyl-N-(1-(5-(4-(pyrrolidin-1-yl)benzyl)octahydropyrrolo[3,4-c]pyrrole-2-carbonyl)-1H-pyrazol-4-yl)acetamide], on FAAH, the negative logarithm of the IC50 (pIC50) is 6.00 to 7.00 and the inhibition at 1 µM was at least 75%. Moreover, at MAGL, the pIC50 was 6.00 to 7.00 and the inhibition at 1 µM was at least 75%.
For `CC(=O)N(C)c1cnn(C(=O)N2CC3CN(Cc4ccc(C(F)(F)F)cc4)CC3C2)c1` (stereo not drawn) [Example 14, N-methyl-N-(1-(5-(4-(trifluoromethyl)benzyl)octahydropyrrolo[3,4-c]pyrrole-2-carbonyl)-1H-pyrazol-4-yl)acetamide], at FAAH, the pIC50 was at least 7.00 and the inhibition at 1 µM is at least 75%. Also, on MAGL, the pIC50 was at least 7.00 and the inhibition at 1 µM is at least 75%.
Regarding `CC(=O)N(C)c1cnn(C(=O)N2CC3CN(Cc4ccc(N5CCOCC5)cc4Cl)CC3C2)c1` (stereo not drawn) [Example 16, N-(1-(5-(2-chloro-4-morpholinobenzyl)octahydropyrrolo[3,4-c]pyrrole-2-carbonyl)-1H-pyrazol-4-yl)-N-methylacetamide], the pIC50 at FAAH and on MAGL was at least 7.00 each time. The inhibition at 1 µM on FAAH and at MAGL was at least 75% each time.
For `CC(=O)N(C)c1cnn(C(=O)N2CC3CN(Cc4ccc(N5CCOCC5)cc4C)CC3C2)c1` (stereo not drawn) [Example 17, N-methyl-N-(1-(5-(2-methyl-4-morpholinobenzyl)octahydropyrrolo[3,4-c]pyrrole-2-carbonyl)-1H-pyrazol-4-yl)acetamide], the inhibition at 1 µM at FAAH and on MAGL was at least 75% throughout.
In the case of `CC(=O)N(C)c1cnn(C(=O)N2CC3(CCN(Cc4ccc(Cl)c(Cl)c4)CC3)C2)c1` [Example 18, N-(1-(7-(3,4-dichlorobenzyl)-2,7-diazaspiro[3.5]nonane-2-carbonyl)-1H-pyrazol-4-yl)-N-methylacetamide], the inhibition at 1 µM on FAAH was at least 75%; on MAGL, 25 to 50%.
On the same counts, the results for `CC(=O)N(C)c1cnn(C(=O)N2CC3(CCN(Cc4ccc(N5CCCC5)cc4)CC3)C2)c1` [Example 19, N-methyl-N-(1-(7-(4-(pyrrolidin-1-yl)benzyl)-2,7-diazaspiro[3.5]nonane-2-carbonyl)-1H-pyrazol-4-yl)acetamide] are 25 to 50% and 50 to 75%.
On the same counts, the results for `CC(=O)N(C)c1cnn(C(=O)N2CC3(CCN(Cc4ccc(C(F)(F)F)cc4)CC3)C2)c1` [Example 20, N-methyl-N-(1-(7-(4-(trifluoromethyl)benzyl)-2,7-diazaspiro[3.5]nonane-2-carbonyl)-1H-pyrazol-4-yl)acetamide] are 50 to 75% and 25 to 50%.
Consider `CC(=O)N(C)c1cnn(C(=O)N2CC3(CCN(Cc4ccc(N5CCOCC5)cc4Cl)CC3)C2)c1` [Example 22, N-(1-(7-(2-chloro-4-morpholinobenzyl)-2,7-diazaspiro[3.5]nonane-2-carbonyl)-1H-pyrazol-4-yl)-N-methylacetamide], for which, on FAAH, the pIC50 was 6.00 to 7.00 and the inhibition at 1 µM was at least 75%. In addition, on MAGL, the pIC50 is 5.00 to 6.00 and the inhibition at 1 µM was 25 to 50%.
Consider `CC(=O)N(C)c1cnn(C(=O)N2CC3(CCN(Cc4ccc(N5CCOCC5)cc4C)CC3)C2)c1` [Example 23, N-methyl-N-(1-(7-(2-methyl-4-morpholinobenzyl)-2,7-diazaspiro[3.5]nonane-2-carbonyl)-1H-pyrazol-4-yl)acetamide], for which the inhibition at 1 µM at FAAH and on MAGL was 25 to 50% in each case.
With `CC(=O)N(C)c1cnn(C(=O)N2CCC3(CC2)CN(Cc2ccc(Cl)c(Cl)c2)C3)c1` [Example 24, N-(1-(2-(3,4-dichlorobenzyl)-2,7-diazaspiro[3.5]nonane-7-carbonyl)-1H-pyrazol-4-yl)-N-methylacetamide], at FAAH, the negative logarithm of the IC50 (pIC50) is at least 7.00 and the inhibition at 1 µM is at least 75%. Moreover, at MAGL, the negative-log IC50 (pIC50) is at least 7.00 and the inhibition at 1 µM was at least 75%.

Source of the values: patent US10323038B2, “Pyrazole compounds and methods of making and using same” (ABIDE THERAPEUTICS, INC., priority 2015, dated 2019).
